Measurements taken from publication PMC9105583, “Stereoselective Synthesis and Anticancer Activity of 2,6-Disubstituted trans-3-Methylidenetetrahydropyran-4-ones” (Materials, 2022).
Where two headings read alike, the source gives them in different places.

Assays:
HL-60 cells = experiment: MTT assay, metabolic activity (cytotoxicity); type: cell-based, human; details: for IC50: 48 h incubation, MTT, mean ± SEM, read-out: IC50 HL-60
Procedure: (§1) Metabolic activity by MTT assay
(§2) The MTT (3-([…])-2,5-diphenyl tetrazolium bromide) assay was performed to assess the cytotoxicity of the investigated compounds. Briefly, HL-60, MCF-7 and HUVEC cells were seeded in 24-well plates at density of 8 × 10^4/mL. After 24 h incubation, cells were treated with various concentrations of the compounds and incubated for another 24 h or 48 h. Then, the cells were incubated with MTT solution (100 µL; 5 mg/mL in PBS) for 1.5 h and centrifuged. The formazan product was dissolved in DMSO, and the absorption was measured using FlexStation 3 Multi-Mode Microplate Reader (Molecular Devices, LLC, San Jose, CA, USA) at 560 nm. Assays were performed twice in triplicate for each analog.
(§3) The cytotoxic activity of the obtained methylidenetetrahydropyran-4-ones was investigated in two cancer cell lines, human promyelocytic leukemia (HL-60) and breast cancer adenocarcinoma (MCF-7), and in healthy umbilical vein endothelial cells (HUVEC), for comparison. An anticancer drug, carboplatin, was used as a reference compound. Metabolic activity of the cells was assessed after 48 h incubation with various concentrations of the analogs (Table 6). Purity of all final compounds was determined on the basis of their ^1H NMR spectra (signal-to-noise ratio and presence of unidentified signals) and was at least 98%, in most cases even over 99%.

MCF-7 cells = experiment: MTT assay, metabolic activity (cytotoxicity); type: cell-based, human; details: mean ± SEM
Procedure: as §1, §2, §3

HUVEC cells = experiment: MTT assay, metabolic activity (cytotoxicity), normal cell line; type: cell-based, human; details: 48 h incubation, mean ± SEM
Procedure: as §1, §2, §3

[1] = test system: Ehrlich ascites carcinoma; design: method as in PMID 3693116; details: cited from earlier work
[2] = test system: human cancer cell lines, including lymphoid leukemia L1210 and leukemia P388; design: method as in PMID 3693116; details: cited from earlier work
[3] = test system: HL-60 human leukemia cells; design: method as in PMID 32019209; details: cited from earlier work
[4] = Stability of the compound at room temperature; type: physicochemical
Procedure: Next, we made an attempt to transform the obtained 2-substituted-5-diethoxyphosphoryltetrahydropyran-4-ones 14a-d into target 2-substituted-5-methylidenetetrahydropyran-4-ones 15a-d, using Horner–Wadsworth–Emmons olefination. The reaction was carried out with 2 equivalents of K2CO3, 10 equivalents of formalin, THF as a solvent and room temperature for 3 h. Unfortunately, the obtained 3-methylidenetetrahydropyran-4-ones 15a-c,e, turned out to be unstable at room temperature and decomposed during column chromatography.

[5] = test system: mouse lymphocytic leukemia cells (L1210); design: method as in PMID 18078344; details: cited from earlier work
[6] = Homo sapiens, MCF7, 48 h incubation

Compound | IC50 (HL-60 cells; Homo sapiens, HL-60, 48 h) | IC50 (MCF-7 cells; [6]) | IC50 (HL-60 cells) | other results
C=C1C(=O)C[C@H](CC)O[C@H]1C(C)C (relative stereo) [Analog 13a, Trans-6-ethyl-2-isopropyl-3-methylidenetetrahydro-4H-pyran-4-one] | 21.3 ± 1 µM | 20.4 ± 0.35 µM | – | –
C=C1C(=O)C[C@H](CC)O[C@H]1CCCC (relative stereo) [Analog 13b, Trans-2-butyl-6-ethyl-3-methylidenetetrahydro-4H-pyran-4-one] | 39.15 ± 0.15 µM | 106.5 ± 0.5 µM | – | –
C=C1C(=O)C[C@H](CC)O[C@H]1c1ccccc1 (relative stereo) [Analog 13c, Trans-6-ethyl-3-methylidene-2-phenyltetrahydro-4H-pyran-4-one] | 11.8 ± 0.15 µM | 36 ± 0.41 µM | – | –
C=C1C(=O)C[C@H](C(C)C)O[C@H]1CCCC (relative stereo) [Analog 13e, Trans-2-butyl-6-isopropyl-3-methylidenetetrahydro-4H-pyran-4-one] | 78.8 ± 5.25 µM | > 150 µM | – | –
C=C1C(=O)C[C@H](C(C)C)O[C@H]1c1ccccc1 (relative stereo) [Analog 13f, Trans-6-isopropyl-3-methylidene-2-phenyltetrahydro-4H-pyran-4-one] | 8.45 ± 0.05 µM | 69.7 ± 2.16 µM | – | IC50 (HUVEC cells; Homo sapiens, HUVEC): 11.9 ± 2.32 µM
C=C1C(=O)C[C@H](c2ccccc2)O[C@H]1CCCC (relative stereo) [Analog 13h, Trans-2-buthyl-3-methylidene-6-phenyltetrahydro-4H-pyran-4-one] | – | – | 134 ± 1 µM | IC50 (MCF-7 cells; 48 h incubation): > 150 µM
C=C1C(=O)C[C@H](c2ccccc2)O[C@H]1c1ccccc1 (relative stereo) [Analog 13i, Trans-3-methylidene-2,6-diphenyltetrahydro-4H-pyran-4-one] | 36 ± 1.41 µM | > 200 µM | – | –
C=C1C(=O)C[C@H](c2ccc(OC)cc2)O[C@H]1C(C)C (relative stereo) [Analog 13j, Trans-2-isopropyl-6-(4-methoxyphenyl)-3-methylidenetetrahydro-4H-pyran-4-one] | < 4 µM | 9.11 ± 0.02 µM | 3.75 ± 0.07 µM | IC50 (HUVEC cells; Homo sapiens, HUVEC): 4.25 ± 0.05 µM
C=C1C(=O)C[C@H](c2ccc(OC)cc2)O[C@H]1CCCC (relative stereo) [Analog 13k, Trans-2-butyl-6-(4-methoxyphenyl)-3-methylidenetetrahydro-4H-pyran-4-one] | > 100 µM | > 100 µM | – | –
C=C1C(=O)C[C@H](c2ccc(OC)cc2)O[C@H]1c1ccccc1 (relative stereo) [Analog 13l, Trans-6-(4-methoxyphenyl)-3-methylidene-2-phenyltetrahydro-4H-pyran-4-one] | 25 ± 0.94 µM | 203 ± 56 µM | – | –
C=C1C(=O)C[C@H]([c-]2cccc2)O[C@H]1C(C)C.[Fe+2].c1cc[cH-]c1 (relative stereo) [Analog 13m, Trans-6-ferrocenyl-2-isopropyl-3-methylidenetetrahydro-4H-pyran-4-one] | – | – | 3.87 ± 0.16 µM | IC50 (MCF-7 cells; 48 h incubation): 5.73 ± 0.36 µM
C=C1C(=O)C[C@H]([c-]2cccc2)O[C@H]1c1ccccc1.[Fe+2].c1cc[cH-]c1 (relative stereo) [Analog 13o, Trans-6-ferrocenyl-3-methylidene-2-phenyltetrahydro-4H-pyran-4-one] | – | – | > 100 µM | IC50 (MCF-7 cells; 48 h incubation): > 100 µM
C=C1C(=O)[C@]2(C)C(=O)O[C@@]34C[C@H](C)C(C(=O)O)=C[C@@H]3CCC[C@@H](C)C[C@@H](C)[C@H]1OC24 (single isomer, unassigned; (+)) [(+)-okilactomycin] | – | – | – | in vivo activity [1]: in vivo activity; in vitro cytotoxicity [2]: exhibits in vitro cytotoxicity
C=C1C(=O)CC(C)(C)OC1C(C)C (stereo not drawn) [6-isopropyl-2,2-dimethyl-5-methylidenetetrahydropyran-4-one] | – | – | – | apoptosis [3]: induced apoptosis; cell cycle [3]: arrest of the cell cycle in the G2/M phase; cytotoxic activity [3]: very high cytotoxic activity
C=C1COC(c2ccc(OC)cc2)CC1=O (stereo not drawn) [Analog 15d, 2-(4-Methoxyphenyl)-5-methylidenetetrahydro-4H-pyran-4-one] | 163 ± 7.07 µM | > 200 µM | – | cytotoxic activity (HL-60 cells; HL-60 and MCF-7, 48 h): practically inactive; stable for a prolonged period of time [4]: at least 7 days
N.N.O=C([O-])C1(C(=O)[O-])CCC1.[Pt+2] [Carboplatin, carboplatin, reference compound] | – | – | 2.53 ± 0.2 µM | IC50 (MCF-7 cells; 48 h incubation): 3.76 ± 0.35 µM; IC50 (HUVEC cells): 5.35 ± 0.05 µM
C[C@H]1CCC/C=C\[C@H]2C=C[C@H](O)[C@H](CC(=O)O1)O2 [aspergillide C] | – | – | – | cytotoxic activity [5]: showed cytotoxic activity
Trans-2-buthyl-6-ferrocenyl-3-methylidenetetrahydro-4H-pyran-4-one [Analog 13n] | – | – | 62.6 ± 0.61 µM | IC50 (MCF-7 cells; 48 h incubation): > 100 µM
